Experiments:
human neutrophils [1] = assay: HxA3-induced rise in intracellular calcium in neutrophils with internalised GTP-γ-S or GTP; format: cell-based; settings: for effect of internalised nucleotide on HxA3-induced rise in intracellular calcium: approximate cytosolic concentration 21 μM
Excerpt: (§1) For measurement of intracellular calcium, the cells were centrifuged and loaded with INDO-1 AM (see Methods for details). The change in intracellular calcium was monitored with fluorescence spectrophotometer at 331 nm excitation and 410 nm emission. […] Data represents the Mean±SD (n=4 separate experiments).
(§2) The method of Jaconi et al (1993, J. Biol. Chem. 268, 26077-26078] was employed with modifications to incorporate GTP-γ-S or GTP into human neutrophils. Specifically, 20×10^6 cells were incubated in 100 μl of sucrose-rich (500 mM) buffer containing in mM: NaCl 140, KCl 5, MgCl2 1, Hepes sodium-free 10, glucose 10, and EGTA 1, 10% polyetylene glycol 1000, pH 7.3. The buffer either contained nothing else (control) or GTP-γ-S (50 mM) or GTP (50 mM). The cells were incubated for 15 min at 37° C. to allow fluid-phase endocytosis of extracellular material. The cells were hypotonically shocked during 2 min at 37° C. by the addition of 1 mL of hypotonic medium made up of 1 part normal medium and 0.66 parts of water [Hallet & Campbell. 1983, Immunology, 50, 487-495]. The cells were then centrifuged at 900 rpm×5 min and resuspended in 2 mL of calcium-free assay medium for the binding studies or in RPMI 1640 for the calcium measurements. […] The particulate matter was sedimented through centrifugation and fluorescence in the supernatant was measured in a fluorescence spectrophotometer and 430 nm excitation, 540 nm emission using dilutions of the dye as standard. While unshocked neutrophils contained virtually no fluorescence above background, the shocked cells contained approximately 24 ng dye/4×10^6 cells. […]
(§3) Intracellular free calcium concentrations were monitored continuously in a Perkin-Elmer fluorescence spectrophotometer (Model 65040) using Indo-I AM-loaded neutrophils. […]
(§4) Unloaded dye was removed by centrifugation and the cells were resuspended in fresh RPMI 1640(1 mL). […] The resulting effect was recorded on a chart recorder (LKB model 2210, Pharmacia, Sweden) at 1 cm/min chart speed for the next 5 min (FIG. 20).

[2] = system: hepoxilin binding protein in neutrophils; assay: Binding of [3H]-HxA3 (8S) to neutrophils with internalised GTP-γ-S or GTP; parameters: species or system human; settings: approximate cytosolic concentration 21 μM
Excerpt: as §1
as §2, with “487-495].” for “487-495]. The cells were then centrifuged at 900 rpm×5 min and resuspended in 2 mL of calcium-free assay medium for the binding studies or in RPMI 1640 for the calcium measurements.”, “standard.” for “standard. While unshocked neutrophils contained virtually no fluorescence above background, the shocked cells contained approximately 24 ng dye/4×10^6 cells.”

[3] = system: bleomycin-induced lung fibrosis; assay: Bleomycin-induced lung injury mouse model; format: in vivo; settings: for inhibition of bleomycin-evoked lung fibrosis, relative potency: 200 μg/mouse bleomycin, various concentrations
Description: Mice were divided into 7 groups, each containing 5 animals. All groups were administered i.p. saline+7% ethanol as vehicle. Group 1 received only vehicle. Groups 2-7 received intratracheal bleomycin. Bleomycin is an antibiotic having antineoplastic activity. It is used clinically to treat malignancies such as lymphoma and testicular cancer. However, it has several side effects such as causing lung fibrosis characterized by diffuse alveolar hemorrhage and marked accumulation of inflammatory cells and an increase in collagen synthesis. Additionally, Group 3 received Trolox antioxidant, Group 4 received H1, Group 5 received H2, Group 6 received H3, and Group 7 received H4. All hepoxilins were dissolved in 7 μl ethanol and diluted to 100 μl saline for i.p. administration. All compounds were administered daily at the dose of 100 μg/20 g (5000 μg/kg) mouse for 8 days. Lungs from all animals were perfused and fixed for histology. […] As in section B1 above, the effective concentration of the drugs is unknown due to the still undetermined uptake and distribution in the body. The present study served as an indicator of biological activity in vivo. The study was also conducted using saline or 200 μg/mouse bleomycin. In these studies the hepoxilin analogs H1 and H2 were administered in various concentrations (FIGS. 14A-14E). […] Lung fibrosis was associated with increased collagen synthesis (FIGS. 15A, 15B). […] Collagen staining was done using sirius red and fast green.

[4] = system: bleomycin-evoked vascular permeability; assay: Bleomycin-evoked skin vascular permeability (Evans Blue); format: in vivo; settings: 100 ng intradermally, bleomycin 12 μg
Description: H1 and 2 blocked the bleomycin (12 μg)—evoked vascular permeability at 100 ng intradermally. (FIGS. 18 and 19). Vascular permeability was measured using Evans Blue I.V. Hepoxilin analogs were intradermally applied and within 30 minutes, a formamide extraction of punched skin was done. Extraction and absorbance was read at 620 nm.

human neutrophils [5] = assay: Rise in intracellular calcium in INDO-1AM loaded neutrophil suspensions, normal vs Type 1 diabetic; format: cell-based
Excerpt: It was previously reported that the native HX cause a rise in intracellular calcium in suspensions of human neutrophils. […] In view of the findings reported above on alterations in the hepoxilin binding protein in diabetes, it was investigated whether the response to varied amounts of hepoxilin in terms of calcium release was altered in Type 1 diabetic neutrophils. This involved measurement of the rise in intracellular calcium in INDO-1AM loaded neutrophil suspensions spectrofluorometrically after addition of HxA3.
Normal and diabetic neutrophils were compared to 4 concentrations of HxA3, i.e. 100, 200, 500 and 1000 ng added in 1 μl DM50 to 2×10^6 cells/ml. […] Additional data was obtained by administering 1000 ng of hepoxilin five minutes after the first test. Previous results with normal neutrophils have shown that the response to a second addition of hepoxilin is blunted depending on the extent of calcium rise in the first test. […]
as §3, §4

Nc1nc2c(ncn2[C@@H]2O[C@H](COP(=O)(O)OP(=O)(O)OP(O)(O)=S)[C@@H](O)[C@H]2O)c(=O)[nH]1 [GTP-γ-S]
effect of internalised nucleotide on HxA3-induced rise in intracellular calcium (human neutrophils [1]): inhibition | effect of internalised nucleotide on binding of [3H]-HxA3 [2]: inhibition

Nc1nc2c(ncn2[C@@H]2O[C@H](COP(=O)(O)OP(=O)(O)OP(=O)(O)O)[C@@H](O)[C@H]2O)c(=O)[nH]1 [GTP]
effect of internalised nucleotide on HxA3-induced rise in intracellular calcium (human neutrophils [1]): no significant change

CCCCC/C=C\CC1CC1/C=C/[C@@H](O)C/C=C\CCCC(=O)OC (stereo partly drawn) [H1, 8(S)-hydroxy-11 ,12-cyclopropyl-eicosa-5Z, 10E, 14Z-trienoic acid methyl ester]
inhibition of bleomycin-evoked lung fibrosis, relative potency [3]: most potent | dose dependence of activity against lung fibrosis ([3]; 400 μg/kg, 2 mg/kg, 4 mg/kg): dose dependent | potency against lung fibrosis compared with Amifostine and Trolox ([3]; Amifostine 200 mg/kg, Trolox 30 mg/kg): more potent than Amifostine (200 mg/kg) or Trolox (30 mg/kg) | threshold activity against lung fibrosis ([3]; i.p.): 400 µg/kg | bleomycin-evoked vascular permeability [4]: blocked

CCCCC/C=C\CC1CC1/C=C/[C@H](O)C/C=C\CCCC(=O)OC (stereo partly drawn) [H2, 8(R)hydroxy-11,12-cyclopropyl-eicosa-5Z, 10E, 14Z-trienoic acid methyl ester]
inhibition of bleomycin-evoked lung fibrosis, relative potency [3]: most potent | bleomycin-evoked vascular permeability [4]: blocked

CCCCC/C=C\C[C@@H]1O[C@H]1/C=C/C(O)C/C=C\CCCC(=O)O (stereo partly drawn) [HxA3, 8(S,R)-hydroxy-11(S),12(S)-epoxy-eicosa-5Z, 9E, 14Z-trienoic acid]
calcium response to second addition, diabetic vs normal neutrophils (human neutrophils [5]; 1000 ng five minutes after the first test): more inhibition | rise in intracellular free calcium, diabetic vs normal neutrophils (human neutrophils [5]; 100, 200, 500 and 1000 ng in 1 μl to 2×10^6 cells/ml): diabetic neutrophils are more responsive | change in intracellular calcium (human neutrophils [1]; 2×10^6 cells in 1 mL calcium-free buffer, 37° C.): rapid rise in intracellular calcium
